Assays:
AMARE [1] = assay: Pre-emergence herbicidal action against AMARE; type: in vivo, Amaranthus retroflexus
Summary of the method: (§1)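 Sandy loam pots, seeds covered with soil, then surface-treated with WP or EC formulations at 600–800 l/ha water plus 0.2% wetting agent. Greenhouse, 3 weeks. Percent damage vs untreated controls.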

ALOMY [2] = assay: Post-emergence herbicidal action against ALOMY; type: in vivo, Alopecurus myosuroides; details: dosage 20 g/ha, visual assessment about 3 weeks after treatment vs untreated controls
Summary of the method: (§2)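 Visual % rating (0% = as untreated, 100% = dead) ~3 wk after spraying one-leaf-stage plants grown in sandy loam; WP/EC in water at 600–800 l/ha, 0.2% wetting agent.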

SETVI [3] = assay: Post-emergence herbicidal action against SETVI; type: in vivo, Setaria viridis
Summary of the method: as §2

SETVI [4] = assay: Pre-emergence herbicidal action against SETVI; type: in vivo, Setaria viridis; details: dosage 80 g/ha
Summary of the method: as §1

VIOTR [5] = assay: Post-emergence herbicidal action against VIOTR; type: in vivo, Viola tricolor
Summary of the method: as §2

MATIN [6] = assay: Pre-emergence herbicidal action against MATIN; type: in vivo, Matricaria inodora
Summary of the method: as §1

VIOTR [7] = assay: Pre-emergence herbicidal action against VIOTR; type: in vivo, Viola tricolor
Summary of the method: as §1

AVEFA [8] = assay: Pre-emergence herbicidal action against AVEFA; type: in vivo, Avena fatua; details: 80 g/ha, pre-emergence
Summary of the method: as §1

ECHCG [9] = assay: Post-emergence herbicidal action against ECHCG; type: in vivo, Echinochloa crus-galli
Summary of the method: as §2

ALOMY [10] = assay: Pre-emergence herbicidal action against ALOMY; type: in vivo, Alopecurus myosuroides; details: 80 g/ha, pre-emergence, scored visually after 3 weeks vs untreated controls (100% = plants have died, 0% = like control plants)
Summary of the method: as §1

VERPE [11] = assay: Post-emergence herbicidal action against VERPE; type: in vivo, Veronica persica
Summary of the method: as §2

PHBPU = assay: Post-emergence herbicidal action against PHBPU; type: in vivo, Pharbitis purpurea
Summary of the method: as §2

VERPE [12] = assay: Pre-emergence herbicidal action against VERPE; type: in vivo, Veronica persica
Summary of the method: as §1

MATIN [13] = assay: Post-emergence herbicidal action against MATIN; type: in vivo, Matricaria inodora
Summary of the method: as §2

ABUTH [14] = assay: Pre-emergence herbicidal action against ABUTH; type: in vivo, Abutilon theophrasti; details: for Pre-emergence action against ABUTH (herbicidal activity): 80 g/ha, scored visually after 3 weeks vs untreated controls (100% = plants have died, 0% = like control plants); for Pre-emergence action against ABUTH (herbicidal activity in percent): dosage 20 g/ha, scored visually after 3 weeks vs untreated controls, 100% = plants have died, 0% = like control plants
Summary of the method: as §1

AMARE [15] = assay: Post-emergence herbicidal action against AMARE; type: in vivo, Amaranthus retroflexus; details: 20 g/ha, visual assessment about 3 weeks after treatment, 100% = plants have died, 0% = like control plants
Summary of the method: as §2

ECHCG [16] = assay: Pre-emergence herbicidal action against ECHCG; type: in vivo, Echinochloa crus-galli
Summary of the method: as §1

AVEFA [17] = assay: Post-emergence herbicidal action against AVEFA; type: in vivo, Avena fatua; details: 20 g/ha, visual assessment about 3 weeks after treatment, 100% = plants have died, 0% = like control plants
Protocol: Seeds of monocotyledonous and dicotyledonous weed and crop plants are laid out in sandy loam soil in wood-fiber pots, covered with soil and cultivated in a greenhouse under good growth conditions. 2 to 3 weeks after sowing, the test plants are treated at the one-leaf stage. The compounds of the invention, formulated in the form of wettable powders (WP) or as emulsion concentrates (EC), are then sprayed onto the green parts of the plants in the form of an aqueous suspension or emulsion at a water application rate equivalent to 600 to 800 l/ha, with addition of 0.2% wetting agent. After the test plants have been left to stand in the greenhouse under optimal growth conditions for about 3 weeks, the action of the preparations is assessed visually in comparison to untreated controls (herbicidal action in percent (%): 100% activity=the plants have died, 0% activity=like control plants). […] The tables below illustrate, in an illustrative manner, the post-emergence herbicidal action of the compounds of the invention, the herbicidal activity being stated in percent.

ABUTH [18] = assay: Post-emergence herbicidal action against ABUTH; type: in vivo, Abutilon theophrasti; details: visual assessment about 3 weeks after treatment vs untreated controls
Summary of the method: as §2

[19] = 20 g/ha, scored visually after 3 weeks vs untreated controls, 100% = plants have died, 0% = like control plants
[20] = 80 g/ha, scored visually after 3 weeks vs untreated controls (100% = plants have died, 0% = like control plants)

SMILES	Pre-emergence action against AMARE in % (AMARE [1]; [19])	Pre-emergence action against AMARE in % (AMARE [1]; [20])	Post-emergence action against ALOMY in % (ALOMY [2])	Post-emergence action against SETVI in % (SETVI [3]; dosage 20 g/ha)	Pre-emergence action against SETVI in % (SETVI [4])	Post-emergence action against VIOTR in % (VIOTR [5]; 5 g/ha)	Post-emergence action against VIOTR in % (VIOTR [5]; 20 g/ha)	Pre-emergence action against MATIN in % (MATIN [6]; dosage 20 g/ha)	Pre-emergence action against MATIN in % (MATIN [6]; dosage 80 g/ha)	Pre-emergence action against VIOTR in % (VIOTR [7]; dosage 80 g/ha)	Post-emergence action against ECHCG in % (ECHCG [9]; dosage 20 g/ha)	Pre-emergence action against ALOMY (herbicidal activity) (ALOMY [10])	Post-emergence action against VERPE in % (VERPE [11]; 20 g/ha)	Post-emergence action against PHBPU in % (PHBPU; dosage 20 g/ha)	Pre-emergence action against VERPE in % (VERPE [12]; dosage 80 g/ha)	Post-emergence action against MATIN in % (MATIN [13]; dosage 20 g/ha)	Pre-emergence action against ABUTH (herbicidal activity) (ABUTH [14])	Pre-emergence action against ABUTH (herbicidal activity in percent) (ABUTH [14])	Post-emergence action at 20 g/ha against AMARE in % (AMARE [15])	Pre-emergence action against ECHCG in % (ECHCG [16]; 80 g/ha)	also measured
CSc1c(C(=O)Nc2nnnn2C)ccc(C(F)(F)F)c1C(=O)NCC1CC1 [Example 1-84]	100%	100%	100%	100%	100%	100%	100%	100%	100%	100%	100%	100%	90%	90%	100%	90%	100%	100%	100%	100%	Post-emergence action against SETVI in % (SETVI [3]; dosage 5 g/ha): 100%; Pre-emergence action against AVEFA in % (AVEFA [8]): 100%; Post-emergence action against PHBPU in % (PHBPU; dosage 5 g/ha): 90%; Pre-emergence action against VERPE in % (VERPE [12]; dosage 20 g/ha): 80%; Post-emergence action at 20 g/ha against AVEFA in % (AVEFA [17]): 80%
CSc1c(C(=O)Nc2nnnn2C)ccc(C(F)(F)F)c1C(=O)NC(C)C1CC1 (stereo not drawn) [Example 1-352]	100%	100%	80%	100%	100%	100%	100%	100%	100%	100%	100%	80%	90%	90%	100%	90%	100%	100%	100%	100%	Post-emergence action against ABUTH in % (ABUTH [18]; dosage 20 g/ha): 100%; Post-emergence action against SETVI in % (SETVI [3]; dosage 5 g/ha): 80%; Pre-emergence action against VIOTR in % (VIOTR [7]; dosage 20 g/ha): 100%; Pre-emergence action against AVEFA in % (AVEFA [8]): 80%; Post-emergence action against ECHCG in % (ECHCG [9]; dosage 5 g/ha): 100%; Pre-emergence action against VERPE in % (VERPE [12]; dosage 20 g/ha): 90%; Post-emergence action against MATIN in % (MATIN [13]; dosage 5 g/ha): 80%; Post-emergence action at 20 g/ha against AVEFA in % (AVEFA [17]): 80%
CSc1c(C(=O)Nc2nnnn2C)ccc(C(F)F)c1C(=O)NC(C)C1CC1 (stereo not drawn) [Example 1-353]	100%	100%	80%	100%	100%	100%	100%	100%	100%	100%	100%	90%	90%	90%	100%	90%	100%	100%	100%	100%	Post-emergence action against ABUTH in % (ABUTH [18]; dosage 20 g/ha): 80%; Pre-emergence action against VIOTR in % (VIOTR [7]; dosage 20 g/ha): 100%; Post-emergence action against ECHCG in % (ECHCG [9]; dosage 5 g/ha): 100%; Post-emergence action against VERPE in % (VERPE [11]; 5 g/ha): 80%; Post-emergence action against MATIN in % (MATIN [13]; dosage 5 g/ha): 80%; Pre-emergence action against ECHCG in % (ECHCG [16]; 20 g/ha): 90%; Post-emergence action at 20 g/ha against AVEFA in % (AVEFA [17]): 80%
CCn1nnnc1NC(=O)c1ccc(C(F)F)c(C(=O)NC2CC2)c1SC [Example 2-89]	90%	100%	90%	100%	100%	90%	90%	90%	100%	100%	90%	100%	90%	80%	90%	90%	100%	100%	100%	90%	Post-emergence action against ABUTH in % (ABUTH [18]; dosage 5 g/ha): 90%; Post-emergence action against ABUTH in % (ABUTH [18]; dosage 20 g/ha): 90%; Post-emergence action against SETVI in % (SETVI [3]; dosage 5 g/ha): 90%; Pre-emergence action against VIOTR in % (VIOTR [7]; dosage 20 g/ha): 90%; Pre-emergence action against AVEFA in % (AVEFA [8]): 90%; Post-emergence action against VERPE in % (VERPE [11]; 5 g/ha): 80%; Post-emergence action against MATIN in % (MATIN [13]; dosage 5 g/ha): 90%; Post-emergence action at 20 g/ha against AVEFA in % (AVEFA [17]): 80%
